# Laboratory results as given in patent US9663460B2, “Sulfur derivatives as chemokine receptor modulators” (ALLERGAN, INC., priority 2010, dated 2017).
# Target: CCR2 (Homo sapiens (Human), UniProt P41597)
# Experiment: Calcium activity assayed on the FLIPR Tetra in HEK-Gqi5 cells stably expressing CCR2
# Assay type: cell-based
# Settings: FLIPR Tetra calcium assay
# CCR2, sequence (P41597 whole entry, species assumed): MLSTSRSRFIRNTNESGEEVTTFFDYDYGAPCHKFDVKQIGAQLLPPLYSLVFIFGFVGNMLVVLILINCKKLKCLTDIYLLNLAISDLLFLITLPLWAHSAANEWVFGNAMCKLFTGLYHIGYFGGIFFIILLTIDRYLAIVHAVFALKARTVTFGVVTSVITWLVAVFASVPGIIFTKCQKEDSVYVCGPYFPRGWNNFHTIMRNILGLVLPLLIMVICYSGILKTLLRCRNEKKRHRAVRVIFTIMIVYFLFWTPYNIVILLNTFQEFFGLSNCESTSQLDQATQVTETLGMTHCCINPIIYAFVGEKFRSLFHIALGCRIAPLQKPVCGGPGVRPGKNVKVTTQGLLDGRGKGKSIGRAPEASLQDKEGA
SMILES,CCR2 % ANTAGONISM [%],IC50 [nM]
Nc1cc(C[S+]([O-])c2ccc(Cl)cc2NS(=O)(=O)c2cc3ccccc3o2)n[nH]1 (stereo not shown) [N-(2-{[(5-amino-1H-pyrazol-3-yl)methyl]sulfinyl}-5-chlorophenyl)-1-benzofuran-2-sulfonamide],99,1380
CC(C)NC(=O)CCSc1ccc(Cl)cc1NS(=O)(=O)c1ccc(Cl)c(C(F)(F)F)c1 [3-{[4-chloro-2-({[4-chloro-3-(trifluoromethyl)phenyl]sulfonyl}amino)phenyl]thio}-N-isopropylpropanamide],59,1030
O=[N+]([O-])c1cccc(C[S+]([O-])c2ccc(F)cc2NS(=O)(=O)c2cc3ccccc3o2)c1 (stereo not shown) [N-{5-fluoro-2-[(3-nitrobenzyl)sulfinyl]phenyl}-1-benzofuran-2-sulfonamide],96,314
C[S+]([O-])c1ccc(Cl)cc1NS(=O)(=O)c1cccc(Cl)c1F (stereo not shown) [3-chloro-N-[5-chloro-2-(methylsulfinyl)phenyl]-2-fluorobenzenesulfonamide],101,61
Nc1cccc(CS(=O)(=O)c2ccc(Cl)cc2NS(=O)(=O)c2ccccc2)c1 [N-{2-[(3-aminobenzyl)sulfonyl]-5-chlorophenyl}benzenesulfonamide],52,1240
N#Cc1ccc(SCc2ccccc2)c(NS(=O)(=O)c2cc3ccccc3o2)c1 [N-[2-(benzylthio)-5-cyanophenyl]-1-benzofuran-2-sulfonamide],78,3840
O=S(=O)(Nc1cc(Cl)ccc1[S+]([O-])Cc1ncccn1)c1cc2ccccc2o1 (stereo not shown) [N-{5-chloro-2-[(pyrimidin-2-ylmethyl)sulfinyl]phenyl}-1-benzofuran-2-sulfonamide],104,506
CS(=O)(=O)c1ccc(Cl)cc1NS(=O)(=O)c1cc2cc(Cl)ccc2o1 [5-chloro-N-[5-chloro-2-(methylsulfonyl)phenyl]-1-benzofuran-2-sulfonamide],74,2050
N#Cc1ccc([S+]([O-])Cc2ccccc2)c(NS(=O)(=O)c2cc3ccccc3o2)c1 (stereo not shown) [N-[2-(benzylsulfinyl)-5-cyanophenyl]-1-benzofuran-2-sulfonamide],105,50
O=S(=O)(Nc1cc(Cl)ccc1SCc1cccnc1)c1cc2ccccc2o1 [N-{5-chloro-2-[(pyridin-3-ylmethyl)thio]phenyl}-1-benzofuran-2-sulfonamide],97,22
CC(=O)NCC[S+]([O-])c1ccc(Cl)cc1NS(=O)(=O)c1ccc(Cl)c(C(F)(F)F)c1 (stereo not shown) [N-(2-{[4-chloro-2-({[4-chloro-3-(trifluoromethyl)phenyl]sulfonyl}amino)phenyl]sulfinyl}ethyl)acetamide],97,–
Nc1cccc(CS(=O)(=O)c2ccc(Cl)cc2NS(=O)(=O)c2cc3ccccc3o2)c1 [N-{2-[(3-aminobenzypsulfonyl]-5-chlorophenyl}-1-benzofuran-2-sulfonamide],90,23
"CN(C)C(=O)CCC[S+]([O-])c1ccc(Cl)cc1NS(=O)(=O)c1cc2ccccc2o1 (stereo not shown) [4-({2-[(1-benzofuran-2-ylsulfonyl)amino]-4-chlorophenyl}sulfinyl)-N,N-dimethylbutanamide]",54,–
Nc1cc(CSc2ccc(Cl)cc2NS(=O)(=O)c2cc3ccccc3o2)ccn1 [N-(2-{[(2-aminopyridin-4-yl)methyl]thio}-5-chlorophenyl)-1-benzofuran-2-sulfonamide],100,80
O=S(=O)(Nc1cc(Cl)ccc1[S+]([O-])Cc1cccc[n+]1[O-])c1cc2ccccc2o1 (stereo not shown) [N-(5-chloro-2-{[(1-oxidopyridin-2-yl)methyl]sulfinyl}phenyl)-1-benzofuran-2-sulfonamide],101,846
O=S(=O)(Nc1cc(Cl)ccc1[S+]([O-])Cc1ccccc1)c1cc2ccccc2o1 (stereo not shown) [N-[2-(benzylsulfinyl)-5-chlorophenyl]-1-benzofuran-2-sulfonamide],85,27
Nc1cccc(CSc2ccc(Cl)cc2NS(=O)(=O)c2ccc(Cl)cc2)c1 [N-{2-[(3-aminobenzyl)thio]-5-chlorophenyl}-4-chlorobenzenesulfonamide],95,3890
C[S+]([O-])c1ccc(Cl)cc1NS(=O)(=O)c1ccc(I)cc1 (stereo not shown) [N-[5-chloro-2-(methylsulfinyl)phenyl]-4-iodobenzenesulfonamide],95,258
Nc1cccc(CSc2ccc(Cl)cc2NS(=O)(=O)c2cccc(Cl)c2)c1 [N-{2-[(3-aminobenzyl)thio]-5-chlorophenyl}-3-chlorobenzenesulfonamide],95,1460
"CC(C)(C)OC(=O)Nc1nc(C[S+]([O-])c2ccc(Cl)cc2NS(=O)(=O)c2cc3ccccc3o2)cs1 (stereo not shown) [tert-butyl {4-[({2-[(1-benzofuran-2-ylsulfonyl)amino]-4-chlorophenyl}sulfinyl)methyl]-1,3-thiazol-2-yl}carbamate]",101,2400
CCCn1cnc(CSc2ccc(Cl)cc2NS(=O)(=O)c2cc3ccccc3o2)c1 [N-(5-chloro-2-{[(1-propyl-1H-imidazol-4-yl)methyl]thio}phenyl)-1-benzofuran-2-sulfonamide],79,1280
NC(=O)CC[S+]([O-])c1ccc(Cl)cc1NS(=O)(=O)c1ccc(Cl)c(C(F)(F)F)c1 (stereo not shown) [3-{[4-chloro-2-({[4-chloro-3-(trifluoromethyl)phenyl]sulfonyl}amino)phenyl]sulfinyl}propanamide],99,797
"CN(C)C(=O)CS(=O)(=O)c1ccc(Cl)cc1NS(=O)(=O)c1ccc(Cl)c(C(F)(F)F)c1 [2-{[4-chloro-2-({[4-chloro-3-(trifluoromethyl)phenyl]sulfonyl}amino)phenyl]sulfonyl}-N,N-dimethylacetamide]",98,462
O=[N+]([O-])c1cccc(C[S+]([O-])c2ccccc2NS(=O)(=O)c2cc3ccccc3o2)c1 (stereo not shown) [N-{2-[(3-nitrobenzyl)sulfinyl]phenyl}-1-benzofuran-2-sulfonamide],97,653
O=S(=O)(Nc1cc(Cl)ccc1[S+]([O-])Cc1c[nH]cn1)c1cc2ccccc2o1 (stereo not shown) [N-{5-chloro-2-[(1H-imidazol-4-ylmethyl)sulfinyl]phenyl}-1-benzofuran-2-sulfonamide],108,296
CSc1ccc(Cl)cc1NS(=O)(=O)c1cccs1 [N-[5-chloro-2-(methylthio)phenyl]thiophene-2-sulfonamide],0,–
O=[N+]([O-])c1cccc(CS(=O)(=O)c2ccccc2NS(=O)(=O)c2cc3ccccc3o2)c1 [N-{2-[(3-nitrobenzyl)sulfonyl]phenyl}-1-benzofuran-2-sulfonamide],83,2130
NCCC[S+]([O-])c1ccc(Cl)cc1NS(=O)(=O)c1cc2ccccc2o1 (stereo not shown) [N-{2-[(3-aminopropyl)sulfinyl]-5-chlorophenyl}-1-benzofuran-2-sulfonamide],63,–
